Results on two compounds are retold here after patent US7618663B2, “Anti-arthritic herbal composition and method thereof” (priority 2004, dated 2009).

The test system of data set [1] is formalin arthritis and granuloma pouch. Conditions: cited from earlier work.
A further data set concerns stomach. Conditions: known side effect of the drug; cited from earlier work.
Data set [2] relates to formaldehyde-induced arthritis. Kind of data set: formaldehyde-induced acute arthritis, paw edema. To be noted: dose 30 mg/kg; given 24 hours before formalin and continued for 13 days; mean ± S.E.M., six rats. It counts as in vivo, rat. How it is done:
Formaldehyde-induced arthritis was produced in rats by injecting 0.1 ml of 2% formaldehyde in the hind paw under the planter aponeurosis. Paw volume was measured daily for 13 days. The test composition was given 24 hours before formalin injection and continued for 13 days.

Marks after values point to notes of the source that are not given here.

Take `C[C@H]1C[C@H]2[C@@H]3CCC4=CC(=O)C=C[C@]4(C)[C@@]3(F)[C@@H](O)C[C@]2(C)[C@@]1(O)C(=O)CO` [betamethasone]: in data set [1] (albino rats), the mortality rate is 12 out of 29. Moreover, the “gastric side effects-ulcer and bleeding” value in data set [1] (rats) is 10 out of 12.

In the case of `CC(C)Cc1ccc(C(C)C(=O)O)cc1` (stereo not shown) [Ibuprofen], the “ulcer in the stomach” value in the data set on stomach was “causes ulcer in the stomach”. In addition, the “% Edema (Swelling)” value in data set [2] was 27.80 ± 4.2^b %.
